The term MRT denotes the average time that molecules of a dose stay in the body. Broadly, the pEC50 is the negative decadic logarithm of the EC50, by convention in mol/L. The term solubility denotes the concentration that dissolves in the medium under given conditions.

One series in a line: in vivo. Further details: species or system NMRI mice. The conditions noted are these: male, NMRI, mouse, iv. The protocol: Example 5: Pharmacokinetics Intravenous (iv) PK in Mouse Pharmacokinetic parameters of the test compounds were determined after intravenous administration to Naval Medical Research Institute (NMRI) mice. Male NMRI mice were obtained either from Charles River (Germany) or from Janvier (France) weighing approximately 30 g to 40 g. Mice were housed in standard cages with light cycle of 12-hour dark and 12-hour light. Standardized food and water were offered ad libitum to the animals during the whole experimental period. The respective peptide was dissolved in 50 mM phosphate buffer (pH 7.4) containing 3.5% mannitol. Intravenous doses of 30 nmol/kg were given via a tail vein. Serial blood samples were collected from the vena saphena into tubes containing EDTA as anticoagulant at different time points up to 48 hours post dosing. After centrifugation for approximately 5 minutes, plasma samples were transferred to 96-well Polymerase Chain Reaction (PCR) plates, immediately frozen and kept at approximately −20° C. until analyzed for plasma concentration by liquid chromatography mass spectrometry (LC-MS/MS). Individual plasma concentration-time profiles were analyzed by a non-compartmental approach, and the resulting pharmacokinetic parameters were determined.

Series [1] deals with T1, human NMUR2 receptor (Homo sapiens, UniProt Q9GZQ4). As to the kind of experiment: IP1 Gq HTRF assay, activation of human NMUR2 in buffer. The class given is cell-based. On the set-up: expressed in transfected cells; host or cells: CHO-K1. The conditions noted are these: for EC50 (hNMUR1)/EC50 (hNMUR2): selectivity for NMUR2 over NMUR1 from IP1 assay in buffer (Example 3). The gist of the method: (§1)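 IP-One HTRF competition (665/620 nm ratio) read after 1 h agonist exposure at 37 °C in pH 7.4 HEPES/HBSS stimulation buffer containing 50 mM LiCl, 0.1% BSA, 1% DMSO. Cells: CHO-K1 stably expressing human NMUR2 or NMUR1. EC50 by 4-parameter nonlinear regression of 8-point curves.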
For orientation: TR-FRET usually uses a lanthanide donor and a delayed reading to cut background.

Another series has as its target T2, human NMUR1 receptor (Homo sapiens, UniProt Q9HB89).
T2 construct: expressed in transfected cells; host or cells: CHO-K1
T2 sequence (Q9HB89 1-426): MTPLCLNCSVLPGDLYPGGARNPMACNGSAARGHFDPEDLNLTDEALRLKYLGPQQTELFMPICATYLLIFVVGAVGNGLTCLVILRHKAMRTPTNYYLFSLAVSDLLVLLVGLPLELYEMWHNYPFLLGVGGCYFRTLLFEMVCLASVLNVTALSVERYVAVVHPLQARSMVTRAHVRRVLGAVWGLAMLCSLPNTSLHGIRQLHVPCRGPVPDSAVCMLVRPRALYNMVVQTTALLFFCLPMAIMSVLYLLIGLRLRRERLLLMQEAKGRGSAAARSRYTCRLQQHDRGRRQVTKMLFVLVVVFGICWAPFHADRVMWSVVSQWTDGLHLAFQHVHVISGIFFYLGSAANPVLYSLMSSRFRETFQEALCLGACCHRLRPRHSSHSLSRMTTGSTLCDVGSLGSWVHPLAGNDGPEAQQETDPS
Briefly: IP1 Gq HTRF assay, activation of human NMUR1 in buffer. It is filed as cell-based. Particulars: CHO-K1 cells expressing human NMUR1, stimulation buffer with 0.1% BSA; read-out: EC50 (hNMUR1) buffer. Put shortly:
as §1

A further series is described as follows: physchem. It is filed as physicochemical. The conditions noted are these: pH 7.2. The protocol:
Example 6: Solubility Determination
Peptides (as TFA-salts) were weighed out in a filter unit (Mini-UniPrep Syringeless Filter 0.45 μm, Whatman PVDF), and 0.1 M phosphate buffer at pH 6 to 8 was added to achieve 10 mg/mL final peptide concentration. The peptides were dissolved by shaking the filter units horizontally at 350 rpm for 2 hours at room temperature. Samples were then filtered to remove any insoluble particles. Controls were prepared by weighing out the corresponding peptide solid material and dissolving it in an appropriate vehicle (e.g. buffer or DMSO) to a final concentration of 1 mg/mL. Both, the control and sample were analyzed by reversed phase chromatography. The area under the peak of the sample was compared to the control and the solubility was calculated based on that ratio. The pH was measured and recorded for each sample.

Series [2] addresses T1, human NMUR2 receptor. Briefly: IP1 Gq HTRF assay, activation of human NMUR2 in human plasma. It is filed as cell-based. Further details: expressed in transfected cells; host or cells: CHO-K1. The conditions noted are these: CHO-K1 cells expressing human NMUR2, 100% human plasma; read-out: EC50 (hNMUR2) human plasma. The gist of the method:
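EC50 obtained via 4-parameter sigmoidal regression of HTRF IP-One signal (665 nm/620 nm), which falls as intracellular IP1 rises. Stimulation: 1 h, 37° C, peptides in human plasma plus 50 mM LiCl, 1% DMSO final, on NMUR2-expressing CHO-K1 cells, 8 concentrations.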

pEC50: −log10 of the molar value. Values after ≈ are worked out from the molar mass of the structure shown. Starred links: 1 amine or outer side, 2 acyl side, 3 side chain; linkers in the order of their positions; H or OH if unused. Non-standard residues stand in square brackets, D forms with d. Residues, ends and D or L forms follow the SMILES beside them. *: point of attachment. Pipz(1-CH2CO,4-CH2CH2NH) = O=C(CN1CCN(CCN[*:1])CC1)[*:2]; γGlu = O=C(O)[C@H](CCC(=O)[*:2])N[*:1]; Stearoyl = CCCCCCCCCCCCCCCCCC(=O)*; X1 = CN(CC(=O)C(=O)[*:2])[*:1]; NMeL = CN[C@@H](CC(C)C)C(=O)O; Nle = CCCC[C@H](N)C(=O)O; Orn = NCCC[C@H](N)C(=O)O; Sar = CNCC(=O)O

T1 sequence (Q9GZQ4 whole entry): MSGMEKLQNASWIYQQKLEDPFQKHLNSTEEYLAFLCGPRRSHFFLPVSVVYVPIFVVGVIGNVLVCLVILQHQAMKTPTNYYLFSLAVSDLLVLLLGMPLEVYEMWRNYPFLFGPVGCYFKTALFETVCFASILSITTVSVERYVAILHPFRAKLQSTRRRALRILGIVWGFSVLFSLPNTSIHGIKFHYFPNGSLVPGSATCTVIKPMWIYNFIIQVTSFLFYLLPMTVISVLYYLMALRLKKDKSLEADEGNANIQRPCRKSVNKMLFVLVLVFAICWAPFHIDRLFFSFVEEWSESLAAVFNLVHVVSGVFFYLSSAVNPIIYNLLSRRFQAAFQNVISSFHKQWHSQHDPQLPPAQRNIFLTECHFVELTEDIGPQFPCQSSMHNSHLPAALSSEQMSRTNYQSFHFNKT

In turn, `CCCC[C@H](NC(=O)[C@H](CC(C)C)N(C)C(=O)[C@H](Cc1ccccc1)NC(=O)[C@H](Cc1ccc(O)cc1)NC(=O)CN1CCN(CCNC(=O)CN(C)C(=O)CN(C)C(=O)CN(C)C(=O)CN(C)C(=O)CN(C)C(=O)CN(C)C(=O)CN(C)C(=O)CN(C)C(=O)CN(C)C(=O)CN(C)C(=O)CN(C)C(=O)CN(C)C(=O)CN(C)C(=O)CN(C)C(=O)CN(C)C(=O)CC[C@H](NC(=O)CC[C@H](NC(=O)CC[C@H](NC(=O)CCCCCCCCCCCCCCCCCCC(=O)O)C(=O)O)C(=O)O)C(=O)O)CC1)C(=O)N[C@@H](CCCNC(=N)N)C(=O)N1CCC[C@H]1C(=O)N[C@@H](CCCNC(=N)N)C(=O)NCC(N)=O` [Ref. 4, C20DA-gGlu3-Sar15-AEPipAc-Tyr-Phe-Leu-Nle-Orn-Pro-Arg-Gly-NH2, reference compound] (HELM PEPTIDE1{[O=C(O)CCCCCCCCCCCCCCCCCCC(=O)[*:2]].[gGlu].[gGlu].[gGlu].[Sar].[Sar].[Sar].[Sar].[Sar].[Sar].[Sar].[Sar].[Sar].[Sar].[Sar].[Sar].[Sar].[Sar].[Sar].[O=C(CN1CCN(CCN[*:1])CC1)[*:2]].Y.F.[meL].[Nle].R.P.R.G.[am]}$$$$V2.0) had an MRT in the series “in vivo” of 22.5 h. Besides, the “EC50 (hNMUR1)/EC50 (hNMUR2)” value on human NMUR2 receptor [1] is 25.0.
On the same counts, the results for `CCCCCCCCCCCCCCCCCC(=O)N[C@@H](CCC(=O)N[C@@H](CCC(=O)N[C@@H](CCC(=O)N(C)CC(=O)N(C)CC(=O)N(C)CC(=O)N(C)CC(=O)N(C)CC(=O)N(C)CC(=O)N(C)CC(=O)N(C)CC(=O)N(C)CC(=O)N(C)CC(=O)N(C)CC(=O)N(C)CC(=O)N(C)CC(=O)N(C)CC(=O)N(C)CC(=O)NCCN1CCN(CC(=O)N[C@@H](Cc2ccc(O)cc2)C(=O)N[C@@H](Cc2ccccc2)C(=O)N(C)[C@@H](CC(C)C)C(=O)N[C@@H](CCCC)C(=O)N[C@@H](CCCNC(=N)N)C(=O)N2CCC[C@H]2C(=O)N[C@@H](CCCNC(=N)N)C(=O)NCC(N)=O)CC1)C(=O)O)C(=O)O)C(=O)O` [Ref. 1, C18A-gGlu3-Sar15-AEPipAc-Tyr-Phe-NMeLeu-Nle-Arg-Pro-Arg-Gly-NH2, reference compound] (HELM PEPTIDE1{[CCCCCCCCCCCCCCCCCC(=O)[*:2]].[gGlu].[gGlu].[gGlu].[Sar].[Sar].[Sar].[Sar].[Sar].[Sar].[Sar].[Sar].[Sar].[Sar].[Sar].[Sar].[Sar].[Sar].[Sar].[O=C(CN1CCN(CCN[*:1])CC1)[*:2]].Y.F.[meL].[Nle].R.P.R.G.[am]}$$$$V2.0) are 0.8 h and 4.3.
For `CCCC[C@H](NC(=O)[C@H](CC(C)C)NC(=O)[C@H](Cc1ccccc1)NC(=O)[C@H](Cc1ccc(O)cc1)NC(=O)CN1CCN(CCNC(=O)CN(C)C(=O)CN(C)C(=O)CN(C)C(=O)CN(C)C(=O)CN(C)C(=O)CN(C)C(=O)CN(C)C(=O)CN(C)C(=O)CN(C)C(=O)CC[C@H](NC(=O)C(=O)CN(C)C(=O)CC[C@H](NC(=O)CC[C@H](NC(=O)CC[C@H](NC(=O)CCCCCCCCCCCCCCCCC(=O)O)C(=O)O)C(=O)O)C(=O)O)C(=O)O)CC1)C(=O)N[C@@H](CCCN)C(=O)N1CCC[C@H]1C(=O)N[C@@H](CCCNC(=N)N)C(=O)NCC(N)=O` [Ref. 6, C18DA-gGlu3-Sar12-AEPipAc-Tyr-Phe-Leu-Nle-Orn-Pro-Arg-Gly-NH2, reference compound] the same measures were 4.2 h and 32.4.
In the series “in vivo”, `CCCCCCCCCCCCCCCCCC(=O)N[C@@H](CCC(=O)N[C@@H](CCC(=O)N[C@@H](CCC(=O)N(C)CC(=O)C(=O)N[C@@H](CCC(=O)N(C)CC(=O)N(C)CC(=O)N(C)CC(=O)N(C)CC(=O)N(C)CC(=O)N(C)CC(=O)N(C)CC(=O)N(C)CC(=O)N(C)CC(=O)NCCN1CCN(CC(=O)N[C@@H](Cc2ccc(O)cc2)C(=O)N[C@@H](Cc2ccccc2)C(=O)N(C)[C@@H](CC(C)C)C(=O)N[C@@H](CCCC)C(=O)N[C@@H](CCCN)C(=O)N2CCC[C@H]2C(=O)N[C@@H](CCCNC(=N)N)C(=O)NCC(N)=O)CC1)C(=O)O)C(=O)O)C(=O)O)C(=O)O` [Ref. 5, C18A-gGlu3-Sar12-AEPipAc-Tyr-Phe-NMeLeu-Nle-Orn-Pro-Arg-Gly-NH2, reference compound] ({Stearoyl-γGlu-γGlu-γGlu}-[X1][γGlu][Sar][Sar][Sar][Sar][Sar][Sar][Sar][Sar][Sar][Pipz(1-CH2CO,4-CH2CH2NH)]YF[NMeL][Nle][Orn]PRG-NH2) yielded an MRT of 2.2 h. Besides, the “EC50 (hNMUR1)/EC50 (hNMUR2)” value on human NMUR2 receptor [1] is given as 7.9.
As for `CCCC[C@H](NC(=O)[C@H](CC(C)C)N(C)C(=O)[C@H](Cc1ccccc1)NC(=O)[C@H](Cc1ccc(O)cc1)NC(=O)CN1CCN(CCNC(=O)CN(C)C(=O)CN(C)C(=O)CN(C)C(=O)CN(C)C(=O)CN(C)C(=O)CN(C)C(=O)CN(C)C(=O)CN(C)C(=O)CN(C)C(=O)CC[C@H](NC(=O)CC[C@H](NC(=O)CC[C@H](NC(=O)CCCCCCCCCCCCCCCCC(=O)O)C(=O)O)C(=O)O)C(=O)O)CC1)C(=O)N[C@@H](CCCN)C(=O)N(C)[C@@H](C)C(=O)N[C@@H](CCCNC(=N)N)C(=O)NCC(N)=O` [Compound 70, C18DA-gGlu3-Sar9-AEPipAc-Tyr-Phe-NMeLeu-Nle-Orn-NMeAla-Arg-Gly-NH2] (HELM PEPTIDE1{[O=C(O)CCCCCCCCCCCCCCCCC(=O)[*:2]].[gGlu].[gGlu].[gGlu].[Sar].[Sar].[Sar].[Sar].[Sar].[Sar].[Sar].[Sar].[Sar].[O=C(CN1CCN(CCN[*:1])CC1)[*:2]].Y.F.[meL].[Nle].[Orn].[meA].R.G.[am]}$$$$V2.0), the pEC50 at human NMUR1 receptor was less than 6.00; at human NMUR2 receptor [2] it was 7.57; at human NMUR2 receptor [1] (CHO-K1 cells expressing human NMUR2, stimulation buffer with 0.1% BSA, read-out: EC50 (hNMUR2) buffer), 8.60. In addition, the concentration in solution in “physchem” (solubility at 2 h) came to 8300 µg/mL (≈ 3.36 mM).
Compound `CCCC[C@H](NC(=O)[C@H](CC(C)C)N(C)C(=O)[C@H](Cc1ccccc1)NC(=O)[C@H](Cc1ccc(O)cc1)NC(=O)CN1CCN(CCNC(=O)CN(C)C(=O)CN(C)C(=O)CN(C)C(=O)CN(C)C(=O)CN(C)C(=O)CN(C)C(=O)CN(C)C(=O)CN(C)C(=O)CN(C)C(=O)CN(C)C(=O)CN(C)C(=O)CN(C)C(=O)CN(C)C(=O)CN(C)C(=O)CN(C)C(=O)CC[C@H](NC(=O)CC[C@H](NC(=O)CC[C@H](NC(=O)CCCCCCCCCCCCCCCCC(=O)O)C(=O)O)C(=O)O)C(=O)O)CC1)C(=O)N[C@@H](CCCNC(=N)N)C(=O)N1CCC[C@H]1C(=O)N[C@@H](CCCNC(=N)N)C(=O)NCC(N)=O` [Ref. 2, C18DA-gGlu3-Sar15-AEPipAc-Tyr-Phe-Leu-Nle-Arg-Pro-Arg-Gly-NH2, reference compound] (HELM PEPTIDE1{[O=C(O)CCCCCCCCCCCCCCCCC(=O)[*:2]].[gGlu].[gGlu].[gGlu].[Sar].[Sar].[Sar].[Sar].[Sar].[Sar].[Sar].[Sar].[Sar].[Sar].[Sar].[Sar].[Sar].[Sar].[Sar].[O=C(CN1CCN(CCN[*:1])CC1)[*:2]].Y.F.[meL].[Nle].R.P.R.G.[am]}$$$$V2.0) showed a mean residence time (MRT) in “in vivo” of 7.9 h.

Source of the values: patent publication US20240279278A1, “NMU RECEPTOR 2 AGONISTS” (Boehringer Ingelheim International GmbH, priority 2023, published 2024).
